Assays:
CD70 [1] = settings: PHA-stimulated T cells, 3 days, oligonucleotide arrays, mean±SEM, 2 independent experiments
CD70 mRNA = assay: Real time RT-PCR of CD70 transcripts relative to β-actin in T cells; format: cell-based, human; settings: for CD70 mRNA (transcripts) in CD4+ T cells: anti-CD3 + anti-CD28, 3 days, 5 μm 5-azaC, 50 μm Pca, 20 μm Hyd, 40 μm UO126, 25 μm PD98059 (FIG. 9); for expression of CD70 mRNA relative to that of beta-actin: PHA-stimulated T cells, treated vs untreated, real time RT-PCR (FIG. 1B)
Experimental: Cells and cell culture. Peripheral blood mononuclear cells (PBMCs) were isolated by density-gradient centrifugation. T cells were then isolated by E-rosetting (See, e.g., Golbus et al., Clin Immunol Immunopathol 46, 129 (1988)). […] Where indicated, the cells were cultured in RPMI 1640/10% fetal calf serum (FCS) supplemented with interleukin-2 (IL-2) (See, e.g., Richardson et al., Clin Immunol Immunopathol 55, 368 (1990)), in round-bottomed 5-ml culture tubes (FALCON). Cells were stimulated with 1 μg/ml of PHA (REMEL) for 16 hours, then cultured in 24-well plates at a density of 1×10^6 for an additional 72 hours in the presence of 2-deoxy-5-azaC or 5-azaC (SIGMA ALDRICH), procainamide (SIGMA ALDRICH), hydralazine (SIGMA ALDRICH), or the MEK inhibitors U0126 (PROMEGA) or PD98059 (PROMEGA). In other studies, PHA-stimulated PBMCs were cultured in RPMI 1640/10% FCS and treated with indomethacin, chloroquine, hydrocortisone, and 6-mercaptopurine (6-MP) (all from SIGMA ALDRICH). TT48E, a cloned, CD4+, tetanus toxoid-reactive human T cell line, was cultured as previously described (Cornacchia et al., J Immunol 140, 2197 (1988); Richardson et al., Arthritis Rheum 35, 647 (1992)).
(§1) In other studies, T cells were isolated by negative selection using magnetic beads and instructions provided by the manufacturer (Pan T cell Isolation Kit, Miltenyi), and the CD4+ or CD8+ subset was similarly isolated by magnetic cell sorting. Jurkat cells (E6-1) were cultured as previously described (See, e.g., Cornacchia et al., J Immunol 140:2197 (1998)). Purified human CD4+ T cells were first stimulated with plate bound anti-CD3 and soluble anti-CD28. Briefly, 24 well plates were coated with 300 μl of anti-CD3 (10 μg/ml in PBS—SouthernBiotech) 18 hours 4° C., washed, then 2×10^6 purified T cells were added to the wells in 2 ml RPMI 1640/10% FCS containing 2 μg/ml anti-CD28 (SouthernBiotech).

CD70 [2] = assay: Flow cytometric analysis of CD70 expression on drug-treated T cells; format: cell-based, human; settings: for CD70 expression on CD4+ T cells: summary statement; for increase of CD70 MFI on CD4+ T cells: 1 μM 5-azaC (n=5), 25 μM PD98059 (n=3), 40 μM U0126 (n=4); for CD70 expression increase on cloned T cell line TT48E: 1 μM 5-azaC or 40 μM U0126 for 3 days, 6 serial experiments; for CD70 expression on PHA-stimulated T cells, treated vs untreated: unfractionated T cells, 3 days, 1 μM 5-azaC, procainamide dose response, 25 μM PD98059, 40 μM U0126 (FIG. 2)
B cell IgG production = assay: T cell and B cell costimulation assay, IgG ELISA of supernatants; format: cell-based, human; settings: autologous B cells; for IgG produced by B cells cultured with drug-treated cloned T cells vs untreated T cells: TT48E treated 3 days, without PWM, P<0.05 (FIG. 4); for IgG secreted by B cells cultured with drug-treated T cells vs untreated T cells: unfractionated PHA-stimulated T cells, PWM, 8 days, P<0.05 (FIG. 3)
Experimental: T cell and B cell costimulation assays. E-rosette-purified T cells were stimulated for 16 hours with PHA and then treated with the indicated chemicals for an additional 72 hours as described above. Where indicated, T cell subsets were isolated by negative selection using magnetic beads (Miltenyi). B cells (1-4×10^5) enriched by negative selection using magnetic beads (Miltenyi) and assessed to be 70-85% pure using PE-conjugated anti-human CD21 (PHARMINGEN), were added to washed, drug-treated autologous T cells, at T cell to B cell ratios of 4:1, 2:1, 1:1, 1:2, and 1:4. Where indicated, 0.625 μg/ml of PWM (ALDRICH) was added. The cells were cultured in RPMI 1640/10% FBS/penicillin/streptomycin for 8 days in 96-well roundbottomed plates (Costar) containing a 200 μl total volume (performed in duplicate). Cells were supplemented with 50 μl of medium on day 4. Where indicated, 1 μg/ml of anti-CD70 monoclonal antibody (HNE51) (DAKO) was added to the cultures. TT48E cells were similarly stimulated with PHA (1 μg/ml) for 18 hours, treated with the indicated drugs for 3 days, then similarly cultured with autologous B cells for 8 days. Where indicated, the TT48E cells were pretreated with 1 μg/ml of anti-CD70 for 30 minutes at 4° C., then washed and added to the B cells, according to protocols described by others (See, e.g., Kobata et al., Proc Natl Acad Sci USA 92, 11249 (1995)).
IgG enzyme-linked immunosorbent assays (ELISAs). IgG was measured in the supernatants of the T cell-B cell cultures (See, e.g., Richardson et al., Clin Immunol Immunopathol 55, 368 (1990)). Briefly, 96-well flatbottomed polystyrene plates (Costar) were coated with 1 μg/ml of goat anti-human IgG (Southern Biotech) and washed. Unreacted combining sites were sealed with 3% bovine serum albumin (BSA) in phosphate buffered saline (PBS) by incubation at 4° C. for 16 hours. Pooled supernatants from duplicate wells were diluted 1:5 in PBS/1% BSA, and 50 μl was added to the wells. Serial dilutions of purified human IgG (Sigma) were used for quantitation. Following incubation and washing, goat anti-human IgG conjugated with horseradish peroxidase (Southern Biotech) was added, and cells were incubated for 2 hours at room temperature. The wells were washed 3 times with PBS/0.1% Tween 20, and color was developed using Sigma Fast tablets. The plates were read at 405 nm using a SpectraMax spectrophotometer (Molecular Devices). All determinations were performed in quadruplicate.
Since CD70 participates in T cell-dependent B cell stimulation (See e.g., Kobata et al., Proc Natl Acad Sci USA 92, 11249 (1995)), the effects of DNA methylation inhibitors on CD70-dependent B cell help were examined. […] Eight days later, total IgG in the supernatants was measured by ELISA. […]

CD70 promoter = assay: Bisulfite sequencing of the CD70 (TNFSF7) promoter in CD4+ T cells; format: cell-based, human; settings: for methylation of the 10 CG pairs between −515 and −423 of the TNFSF7 promoter: CD4+ T cells stimulated with anti-CD3 and anti-CD28, vs stimulated untreated controls (FIG. 13, 14)
Experimental: as §1
Bisulfite sequencing. The putative CD70 promoter was identified using the published CD70 cDNA sequence and Tfsitescan software. Deoxycytosine (dC) and deoxymethylcytosine (d^mC) bases in the gene promoter and 5′ flanking sequences were identified by bisulfite treatment of purified DNA followed by nested PCR amplification of 3 sequential fragments to span the entire region. The primers were designed to avoid CG pairs and to account for the conversion of dC to dU by the bisulfite. EcoRI sites were added to the forward primers, and XbaI to the reverse, to facilitate cloning. The amplified fragments were then cloned into PBS+, and 5 clones sequenced for each fragment. The primers used were: […]
The effect of lupus and DNA methylation inhibitors on a regulatory element in the CD70 promoter was examined. DNA was isolated from the CD4+ T cells of 7 healthy individuals or 6 lupus patients, bisulfite treated, the region from −466-−515, containing 6 CG pairs was amplified by PCR, and 5 fragments sequenced from each individual. The average methylation status of the 6 CG pairs for healthy versus lupus individuals is shown (FIG. 8, NI and Lupus, respectively). CD4+ T cells from 5 individuals were also stimulated with PHA, treated with the irreversible DNA methyltransferase inhibitor 5-azacytidine (5-azaC), and the methylation status of the 6 CG pairs similarly analyzed from the 25 fragments sequenced (FIG. 8, 5-azaC). […] Results are presented as the mean±SEM of the average methylation of the 6 CG pairs, measured from the 10-35 determinations/group.
The effects of the DNA methylation inhibitors on the methylation status of this region were then compared. […] Again, 5 cloned fragments were sequenced from each control, for a total of 35 determinations per CG pair. […] FIG. 14 compares the average methylation for the 10 CG pairs (−515 to −423) in the T cells treated with DNA methylation inhibitors relative to stimulated, untreated controls.

CD70 [3] = assay: CD70 expression on CD4+ cells of PBMCs cultured with medications used to treat lupus, flow cytometry; format: cell-based, human; settings: PBMCs with or without PHA, 24 hours, graded concentrations (1-100 μM)

| SMILES | CD70 mRNA (transcripts) in CD4+ T cells (CD70 mRNA) | CD70 expression on CD4+ T cells (CD70 [2]) | increase of CD70 MFI on CD4+ T cells (CD70 [2]) [fold] | CD70 expression on PHA-stimulated T cells, treated vs untreated (CD70 [2]) | methylation of the 10 CG pairs between −515 and −423 of the TNFSF7 promoter (CD70 promoter) | CD70 expression on stimulated or unstimulated CD4+ cells (CD70 [3]) | further results |
| --- | --- | --- | --- | --- | --- | --- | --- |
| Nc1ncn([C@H]2C[C@H](O)[C@@H](CO)O2)c(=O)n1 [2-deoxy-5-azaC] |  |  |  |  |  |  | CD70 expression increase in treated cells relative to untreated controls (CD70 [1]): 2.6±0.6 fold |
| Nc1ncn([C@@H]2O[C@H](CO)[C@@H](O)[C@H]2O)c(=O)n1 [5-azaC, 5-azacytidine] | increased steady state levels of CD70 mRNA | increased CD70 expression | 1.53±0.45 | small increase | hypomethylated compared to controls |  | expression of CD70 mRNA relative to that of beta-actin (CD70 mRNA): increased the expression of CD70 mRNA; CD70 expression increase on cloned T cell line TT48E (CD70 [2]): 1.69±0.33 fold; concentration producing the greatest effect on CD70 expression (CD70 [2]; range of 5-azaC concentrations, PHA-stimulated T cells, n=5 experiments (FIG. 2B)): 1 µM; IgG produced by B cells cultured with drug-treated cloned T cells vs untreated T cells (B cell IgG production): greater amounts of IgG; IgG secreted by B cells cultured with drug-treated T cells vs untreated T cells (B cell IgG production): greater amounts of IgG; CD70 expression increase in treated cells relative to untreated controls (CD70 [1]): > 2 fold |
| Sc1ncnc2nc[nH]c12 [6-MP, 6-mercaptopurine] |  |  |  |  |  | No increase in CD70 expression |  |
| COc1cccc(-c2cc(=O)c3ccccc3o2)c1N [PD98059] | increased steady state levels of CD70 mRNA | increased CD70 expression | 1.63±0.43 | increase in CD70 expression | appears to demethylate |  |  |
| N#CC(=C(/N)Sc1ccccc1N)/C(C#N)=C(\N)Sc1ccccc1N [U0126] | increased steady state levels of CD70 mRNA | increased CD70 expression | 3.20±0.44 | increase in CD70 expression | appears to demethylate |  | expression of CD70 mRNA relative to that of beta-actin (CD70 mRNA): increased the expression of CD70 mRNA; CD70 MFI increase in T cells treated with U0126 (FIG. 2I) (CD70 [2]; T cells treated with 40 μM U0126, P=0.085): 2.83±0.95 fold; CD70 expression increase on cloned T cell line TT48E (CD70 [2]): 1.87±0.37 fold; IgG produced by B cells cultured with drug-treated cloned T cells vs untreated T cells (B cell IgG production): greater amounts of IgG; IgG secreted by B cells cultured with drug-treated T cells vs untreated T cells (B cell IgG production): greater amounts of IgG |
| CCN(CC)CCCC(C)Nc1ccnc2cc(Cl)ccc12 (stereo not drawn) [chloroquine] |  |  |  |  |  | No increase in CD70 expression |  |
| C[C@]12CCC(=O)C=C1CC[C@@H]1[C@@H]2[C@@H](O)C[C@@]2(C)[C@H]1CC[C@]2(O)C(=O)CO [hydrocortisone] |  |  |  |  |  | No increase in CD70 expression |  |
| COc1ccc2c(c1)c(CC(=O)O)c(C)n2C(=O)c1ccc(Cl)cc1 [indomethacin] |  |  |  |  |  | No increase in CD70 expression |  |
| CCN(CC)CCNC(=O)c1ccc(N)cc1 [procainamide] | increased steady state levels of CD70 mRNA | increased CD70 expression |  | increase in the ratio of the mean fluorescence intensity (MFI) of CD70 expression | appears to demethylate |  | methylation of the region from −466-−515 (6 CG pairs) of the CD70 promoter (CD70 promoter; PHA-stimulated CD4+ T cells (FIG. 8)): demethylate this region |

Reference: US7723037B2, “Methods and kits for diagnosing or monitoring autoimmune and chronic inflammatory disease” (The Regents of the University of Michigan, priority 2004, dated 2010)
